Experimental data taken from US5861405A, “S-substituted 1,3,7-trialkyl-xanthine derivatives” (priority 1994, dated 1999).
Values joined by “and” are separate entries in the source; they are usually repeats but may differ in a detail not shown here. Equal entries are not always repeated. Where two headings read alike, the source gives them in different places.

Experiments:
[1] = target: T1, rat A1 cortical receptors (Rattus norvegicus, UniProt P25099); experiment: Radioligand binding, [3H]N6-phenylisopropyladenosine ([3H]PIA), rat cortical A1 receptors; conditions: for Ki: vs [3H]PIA (1 nM), read-out: Ki (A1); for inhibition at 10 µM: 1.5 h, at 10^-5, vs [3H]PIA, read-out: Percent displacement of specific binding (A1)
T1 construct: Rat cerebral cortical membranes and striatal membranes were prepared; from tissue; host or cells: rat cerebral cortex membranes
T1 sequence (P25099 1-326): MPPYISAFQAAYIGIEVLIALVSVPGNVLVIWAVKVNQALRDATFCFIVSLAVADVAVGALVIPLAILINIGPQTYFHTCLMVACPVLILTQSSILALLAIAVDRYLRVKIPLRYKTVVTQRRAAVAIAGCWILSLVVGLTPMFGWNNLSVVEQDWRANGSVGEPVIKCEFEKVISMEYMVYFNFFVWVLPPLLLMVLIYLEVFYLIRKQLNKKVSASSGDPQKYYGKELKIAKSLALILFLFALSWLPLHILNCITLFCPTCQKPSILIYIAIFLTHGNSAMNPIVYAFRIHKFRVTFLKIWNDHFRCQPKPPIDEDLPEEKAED

[2] = target: rat striatal A2a receptors (Rattus norvegicus, UniProt P30543); experiment: Radioligand binding, [3H]CGS 21680, rat striatal A2a receptors; parameters: Rat cerebral cortical membranes and striatal membranes were prepared; from tissue; host or cells: rat striatal membranes; conditions: for potency or selectivity in binding, in words: rat A1 and A2 binding; for A2-selectivity: rat brain binding, this study
Sequence of rat striatal A2a receptors (P30543 whole entry): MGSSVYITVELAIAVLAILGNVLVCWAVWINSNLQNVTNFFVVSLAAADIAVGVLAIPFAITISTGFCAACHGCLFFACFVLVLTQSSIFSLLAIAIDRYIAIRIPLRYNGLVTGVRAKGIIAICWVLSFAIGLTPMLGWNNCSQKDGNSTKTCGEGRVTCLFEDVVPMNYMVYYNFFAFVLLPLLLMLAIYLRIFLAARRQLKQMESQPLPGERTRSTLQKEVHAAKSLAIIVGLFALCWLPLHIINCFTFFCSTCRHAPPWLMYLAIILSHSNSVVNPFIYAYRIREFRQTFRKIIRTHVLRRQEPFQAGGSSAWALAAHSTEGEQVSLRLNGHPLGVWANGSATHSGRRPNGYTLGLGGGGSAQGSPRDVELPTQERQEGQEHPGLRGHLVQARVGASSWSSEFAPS

[3] = Table I, vs [3H]CGS21680 (5 nM), rat striatal A2 receptors, read-out: Ki (A2a)
[4] = Table III, vs [3H]CGS21680 (5 nM), read-out: Ki (A2)
[5] = vs [3H]CGS 21680, read-out: Ki value / affinity at A2 receptors

SMILES	Ki ([1]; Table I, rat A1 receptors)	A1/A2a ratio ([2]; Table I, ratio of Ki values)	Ki [2, 3]	also measured
Cn1c(=O)c2[nH]c(/C=C/c3cccc(C(F)(F)F)c3)nc2n(C)c1=O [Compound 20a, 1,3-Dimethyl-8-(3-trifluoromethylstyryl)xanthine]	881 ± 251 nM	2.6	343 ± 58 nM	
COc1cc(/C=C/c2nc3c(c(=O)n(C)c(=O)n3C)n2C)cc(OC)c1O [Compound 35]	8700 nM	19	450 ± 66 nM	potency or selectivity in binding, in words [2]: moderately selective
Cn1c(=O)c2[nH]c(/C=C/c3ccccc3)nc2n(C)c1=O [Compound 15a]	654 ± 170 nM	2.3	291 ± 40 nM	potency or selectivity in binding, in words [2]: non-selective
C/C(=C\c1nc2c(c(=O)n(C)c(=O)n2C)n1C)c1ccccc1 [phenyl (Rβ = Me)]				Ki ([1]; Table III): 8680 nM; A1/A2 ratio ([2]; Table III): 6; Ki [2, 4]: 1420 nM
Cn1c(=O)c2c(nc(/C=C/C(=O)OC(C)(C)C)n2C)n(C)c1=O [C(O)OC(CH3)3 (Rβ = H), 8-(trans-2-tert-Butyloxycarbonylvinyl)-1,3,7-trimethylxanthine]				Ki ([1]; Table III): 18000 nM; A1/A2 ratio ([2]; Table III): 31; Ki [2, 4]: 590 nM
Cn1c(=O)c2c(nc(/C=C/c3cccc(NC(=O)OC(C)(C)C)c3)n2C)n(C)c1=O [Compound 25, 1,3,7-Trimethyl-8-(3-tert-butyloxycarbonylaminostyryl)xanthine]			784 ± 100 nM	
COc1cc(/C=C/c2nc3c(c(=O)n(C)c(=O)n3C)n2C)cc(OC)c1OCCCCNC(=O)OC(C)(C)C [Compound 39, 1,3,7-Trimethyl-8-[3,5-dimethoxy-4-[4-(tert-butyloxycarbonylamino)butyloxy]styryl]xanthine]	11000 nM	42	265 ± 105 nM	
COc1cc(/C=C/c2nc3c(c(=O)n(C)c(=O)n3C)n2C)cc(OC)c1OC/C=C/CNC(=O)OC(C)(C)C [Compound 42]		> 40	353 ± 62 nM	inhibition at 10 µM [1]: 11 ± 5%
Cn1c(=O)c2[nH]c(/C(F)=C/c3ccccc3)nc2n(C)c1=O [Compound 16]	2190 nM	1.4	2110 nM	
COc1cc(/C=C/c2nc3c(c(=O)n(C)c(=O)n3C)n2C)cc(OC)c1OCCCCN [Compound 38, 1,3,7-Trimethyl-8-[3,5-dimethoxy-4-[4-aminobutyloxy]styryl]xanthine]	6170 nM	36	173 ± 43 nM	
CCCn1c(=O)c2c(nc(/C=C/c3cccc(N)c3)n2C)n(CCC)c1=O [Compound 49]	113 ± 21 nM	6.0	18.9 ± 5.3 nM	Ki [2, 5]: ≤ 50 nM
COc1ccc(/C=C/c2nc3c(c(=O)n(C)c(=O)n3C)n2C)cc1OC [Compound 32b, 1,3,7-Trimethyl-8-(3,4-dimethoxystyryl)xanthine]	13800 nM		197 ± 33 nM	A1/A2a ratio ([2]; rat, brain membranes): 70
Cn1c(=O)c2c(nc(/C=C/c3cccc(C(F)(F)F)c3)n2C)n(C)c1=O [Compound 20b, 1,3,7-Trimethyl-8-(3-trifluoromethylstyryl)xanthine]	3330 nM	25	134 ± 44 nM	
COc1cc(/C=C/c2nc3c(c(=O)n(C)c(=O)n3C)n2C)cc(OC)c1OC(C)=O [Compound 36]	6330 nM	93	68 ± 22 nM	A2-selectivity [2]: 93 fold
COc1cc(/C=C/c2nc3c(c(=O)n(C)c(=O)n3C)n2CCc2ccccc2)cc(OC)c1OC [Compound 44f]				inhibition at 10 µM [1]: 32 ± 9%
Cn1c(=O)c2c(nc(/C=C/c3cccc([N+](=O)[O-])c3)n2C)n(C)c1=O [Compound 21b, 1,3,7-Trimethyl-8-(3-nitrostyryl)xanthine]	2140 nM	11	195 ± 44 nM	
CC(=O)Nc1cccc(/C=C/c2nc3c(c(=O)n(C)c(=O)n3C)n2C)c1 [Compound 23, 1,3,7-Trimethyl-8-(3-acetylaminostyryl)xanthine]	9470 nM	240	39 ± 21 nM	Ki [2, 5]: 39 nM and ≤ 50 nM
COc1ccccc1/C=C/c1nc2c(c(=O)n(C)c(=O)n2C)n1C [Compound 17b, 1,3,7-Trimethyl-8-(2-methoxystyryl)xanthine]	4760 nM	18	267 ± 84 nM	
CCCn1c(=O)c2c(nc(/C=C/c3cc(OC)c(OC)cc3OC)n2C)n(CCC)c1=O [Compound 56b]	689 ± 239 nM		327 ± 52 nM	A1/A2a ratio ([2]; rat, brain membranes): 2.1
Cn1c(=O)c2c(nc(/C=C/c3ccccc3)n2C)n(C)c1=O [Compound 15b]	3890 nM			
Cn1c(=O)c2[nH]c(/C=C/c3cccc(O)c3)nc2n(C)c1=O [Compound 18]	702 ± 40 nM	2.4	303 ± 55 nM	potency or selectivity in binding, in words [2]: equipotent with the methoxy compound, 19b, at A2 -receptors and more potent at A1 -receptors
Cn1c(=O)c2[nH]c(/C=C/c3cccc([N+](=O)[O-])c3)nc2n(C)c1=O [Compound 21a, 1,3-Dimethyl-8-(3-nitrostyryl)xanthine]	1060 nM	2.4	438 ± 106 nM	
COc1cccc2cc(-c3nc4c(c(=O)n(C)c(=O)n4C)n3C)oc12 [Compound 58b]				Ki ([2]; Table IV, vs [3H]CGS21680 (5 nM), read-out: Ki (A2)): 4740 nM

Second part, led by results:

Ki ([1]; Table I, rat A1 receptors)	A1/A2a ratio ([2]; Table I, ratio of Ki values)	Ki [2, 3]	SMILES	also measured
146 ± 25 nM	0.42	346 ± 97 nM	CCCn1c(=O)c2[nH]c(/C=C/c3cc(F)cc(F)c3)nc2n(CCC)c1=O [Compound 54a]	
301 ± 64 nM	9.1	33 ± 15 nM	CCCn1c(=O)c2c(nc(/C=C/c3cccc(F)c3)n2C)n(CCC)c1=O [Compound 50b]	Ki [2, 5]: ≤ 50 nM
167 ± 39 nM	0.77	216 ± 66 nM	CCCn1c(=O)c2[nH]c(/C=C/c3cccc(Cl)c3)nc2n(CCC)c1=O [Compound 51a]	
3040 nM	25	120 ± 36 nM	COc1cc(/C=C/c2nc3c([nH]2)c(=O)n(C)c(=O)n3C)cc(OC)c1 [Compound 33a, 1,3-Dimethyl-8-(3,5-dimethoxystyryl)xanthine]	
143 ± 19 nM	0.44	323 ± 74 nM	CCCn1c(=O)c2[nH]c(/C=C/c3cc(OC)c(OC)cc3OC)nc2n(CCC)c1=O [Compound 56a]	
874 ± 222 nM			CCCn1c(=O)c2c(nc(/C=C/c3cccc(Cl)c3)n2C)n(CCC)c1=O [Compound 51b]	
2790 nM			CCn1c(=O)c2c(nc(/C=C/c3cc(OC)c(OC)c(OC)c3)n2C)n(CC)c1=O [Compound 45b]	
1600 nM	2.7	600 ± 204 nM	COc1cccc(/C=C/c2nc3c([nH]2)c(=O)n(C)c(=O)n3C)c1OC [Compound 31a, 1,3-Dimethyl-8-(2,3-dimethoxystyryl)xanthine]	
852 ± 277 nM	3.2	269 ± 7 nM	CCn1c(=O)c2[nH]c(/C=C/c3cc(OC)c(OC)c(OC)c3)nc2n(CC)c1=O [Compound 45a]	
6290 nM	7.1	882 ± 239 nM	CCn1c(/C=C/c2cc(OC)c(OC)c(OC)c2)nc2c1c(=O)n(C)c(=O)n2C [Compound 44c, 7-Ethyl-1,3-trimethyl-8-[3,4,5-trimethoxystyryl]xanthine]	
78 ± 17 nM	0.51	153 ± 31 nM	CCCn1c(=O)c2[nH]c(/C=C/c3cccc(F)c3)nc2n(CCC)c1=O [Compound 50a]	
858 ± 320 nM	1.8	472 ± 132 nM	COc1ccc(/C=C/c2nc3c([nH]2)c(=O)n(C)c(=O)n3C)cc1 [Compound 29a, 1,3-Dimethyl-8-(4-methoxystyryl)xanthine]	
5340 nM		1100 nM	COc1ccc(/C=C/c2nc3c([nH]2)c(=O)n(C)c(=O)n3C)cc1OC [Compound 32a, 1,3-Dimethyl-8-(3,4-dimethoxystyryl)xanthine]	A1/A2a ratio [2]: 48
632 ± 152 nM	3.0	210 ± 140 nM	CCCn1c(=O)c2[nH]c(/C=C/c3cc(OC)cc(OC)c3)nc2n(CCC)c1=O [Compound 53a]	
2990 nM	46	64.8 ± 19.6 nM	Cn1c(=O)c2c(nc(/C=C/c3cccc([N+]#N)c3)n2C)n(C)c1=O [Compound 28d]	
14800 nM	230	65 ± 9 nM	Cn1c(=O)c2c(nc(/C=C/c3cc(F)cc(F)c3)n2C)n(C)c1=O [Compound 34b]	
2720 nM	5.3	516 ± 99 nM	Cn1c(=O)c2[nH]c(/C=C/c3cccc(F)c3)nc2n(C)c1=O [Compound 27a]	
3520 nM	120	29.2 ± 3.1 nM	Cn1c(=O)c2c(nc(/C=C/c3cccc(Br)c3)n2C)n(C)c1=O [Compound 28b]	
15800 nM	190	83 ± 18 nM	Cn1c(=O)c2c(nc(/C=C/c3cccc(F)c3)n2C)n(C)c1=O [Compound 27b]	A2-selectivity [2]: ≥ 200 fold
3030 nM	0.24	12800 nM	CN(C)c1ccc(/C=C/c2nc3c([nH]2)c(=O)n(C)c(=O)n3C)cc1 [Compound 30a, 1,3-Dimethyl-8-(4-dimethylaminostyryl)xanthine]	
